Results taken from paper PMC7235764, “Novel Azoles as Antiparasitic Remedies against Brain-Eating Amoebae” (Antibiotics, 2020).

Tests used:
[1] = test system: N. fowleri; assay: Amoebistatic assay (growth inhibition on HeLa feeder monolayers) against N. fowleri; type: cell-based, Naegleria fowleri; settings: 24 h; for inhibition at 50 µM: Naegleria fowleri, HeLa, compared to untreated cells; for amoebistatic activity, mean (M): 50 μM, M with SD
Protocol: (§1) N. fowleri cells (ATCC 30174) and B. mandrillaris cells (ATCC 50209) were acquired from American Type Culture Collection and cultivated in RPMI-1640 media supplemented with 1% antibiotics with HeLa cell monolayers used as a feeder layer at 37 °C and 5% CO2 as previously cultured. 5 × 10^5 amoebae cells were kept for 24 h at 37 °C and 5% CO2 with 50 μM azole compounds on HeLa monolayers as feeder cells. While positive controls used were amphotericin B and ketoconazole, RPMI-1640 alone was used as negative control and respective solvents were used as solvent control. Trypan blue exclusion assay which consists of using 0.1% trypan blue to distinguish between live (unstained) and dead (stained) cells and count the cells using a haemocytometer.

[2] = test system: HaCaT cells; assay: Cytotoxicity assay (LDH release) against human cells; type: cell-based; settings: 50 μM, 24 h, 37 °C
Protocol: Figure 3 Cytotoxic effects of azoles against host cells. Briefly, 50 μM azoles were incubated with HaCaT cells monolayers for 24 h at 37 °C in a 5% CO2 incubator as described in Materials and Methods. […] The data are presented as the mean ± standard error. Cytotoxic effects of the drugs were determined as previously described. 50 μM azole compounds was incubated on HeLa cells for 24 h at 37 °C and 5% CO2 in RPMI-1640 media. The level of lactate dehydrogenase (LDH) enzyme in the RPMI-media which indicates cytotoxic effects of drugs was determined by means of a cytotoxicity detection kit (Roche Applied Science). The percentage cytotoxicity was calculated: [(Absorbance of sample - Absorbance of untreated cells)/(Absorbance for total LDH release - Absorbance of untreated cells)] × 100 = percentage cytotoxicity.

[3] = test system: B. mandrillaris; assay: Amoebistatic assay (growth inhibition on HeLa feeder monolayers) against B. mandrillaris; type: cell-based, Balamuthia mandrillaris; settings: 24 h; for amoebistatic activity, mean (M): 50 μM, M with SD; for inhibition at 50 µM: Balamuthia mandrillaris, HeLa, untreated amoebae considered as 0%
Protocol: as §1

[4] = test system: B. mandrillaris; assay: Amoebicidal assay (trypan blue exclusion) against B. mandrillaris; type: cell-based, Balamuthia mandrillaris; settings: 50 μM, 24 h; for amoebicidal activity, mean (M): M with SD, azole alone (before conjugation); for percentage cell death (amoebicidal activity): negative control considered as 0%
Protocol: (§2) N. fowleri cells (ATCC 30174) and B. mandrillaris cells (ATCC 50209) were acquired from American Type Culture Collection and cultivated in RPMI-1640 media supplemented with 1% antibiotics with HeLa cell monolayers used as a feeder layer at 37 °C and 5% CO2 as previously cultured.
(§3) Amoebicidal assays were accomplished as formerly explained. Briefly, 5 × 10^5 amoebae cells were kept for 24 h at 37 °C and 5% CO2 with 50 μM azole compounds. While positive controls used were amphotericin B and ketoconazole, RPMI-1640 alone was used as negative control and respective solvents were used as solvent control. Trypan blue exclusion assay, which consists of using 0.1% trypan blue to differentiate between live (unstained) and dead (stained) cells and count the cells using a haemocytometer.

[5] = test system: N. fowleri; assay: Amoebicidal assay (trypan blue exclusion) against N. fowleri; type: cell-based, Naegleria fowleri; settings: 50 μM, 24 h; for amoebicidal activity, mean (M): M with SD, azole alone (before conjugation); for percentage cell death (amoebicidal activity): negative control considered as 0%
Protocol: as §2, §3

Row | SMILES | inhibition at 50 µM [1] [%] | cytotoxicity [2] | amoebistatic activity, mean (M) [3] [%] | inhibition at 50 µM [3] [%] | amoebicidal activity, mean (M) [4] [%] | percentage cell death (amoebicidal activity) [4] | amoebicidal activity, mean (M) [5] [%] | percentage cell death (amoebicidal activity) [5] | amoebistatic activity, mean (M) [1] [%]
1 | COc1cc(-c2nc3ccccc3[nH]2)cc(Br)c1OC [A1, 2-[3-Bromo-4,5-bis(methoxy)phenyl]-1H-benzimidazole] | 20 | 41% | 52.63 | 53 | 35.62 | 36% | 0 | did not cause amoebicidal activity | –
2 | Cc1ccc(-c2nc3ccccc3[nH]2)o1 [A2] | 64 | no cytotoxic activities | 70.33 | 70 | – | limited amoebicidal activity | – | 31% | 64.31
3 | CC1(C)C/C(=N\NC(=S)Nc2ccccc2Cl)c2cnn(-c3ccccc3)c2C1 [A3, (E)-N-(2-Chlorophenyl)-2-(6,6-dimethyl-1-phenyl-1,5,6,7-tetrahydro-4H-indazol-4-4ylidene)hydrazine-1-carbothioamide] | 75 | 19% | 55.62 | 56 | 23.86 | 24% | – | 39% | 75.12
4 | CC1(C)C/C(=N\NC(N)=S)c2cnn(-c3ccccc3)c2C1 [A4, (E)-2-(6,6-Dimethyl-1-phenyl-1,5,6,7-tetrahydro-4H-indazol-4-4ylidene)hydrazine-1-carbothioamide] | 55 | 5% | 64.98 | 65 | 1.65 | limited amoebicidal activity | 72.34 | 72% | 54.70
5 | Clc1cccc(Cc2nnn[nH]2)c1 [A5, 5-(3-Chlorobenzyl)-1H-tetrazole] | 63 | 11% | 51.24 | 51 | 64.54 | 65% | 66.19 | 66% | 62.74
6 | c1ccc(-c2nnn[nH]2)cc1 [A6, 5-Phenyl-1H-tetrazole] | 67 | no cytotoxic activities | 70.35 | 70 | 30.58 | 31% | – | 45% | 66.53
